The results in this text go back to patent US5922711A, “8-substituted quinazolines, quinoxalines and benzopyridazines” (Fujisawa Pharmaceutical Co., Ltd., priority 1993, dated 1999).

Where a name gives a salt, the structure may show the parent alone.

The experiment concerns the target T1, Bradykinin receptor (Cavia porcellus, UniProt O70526).
T1 construct: The ileum was removed and homogenized in buffer; from tissue; host or cells: guinea pig ileum, crude membrane suspension
T1 sequence (O70526 1-372): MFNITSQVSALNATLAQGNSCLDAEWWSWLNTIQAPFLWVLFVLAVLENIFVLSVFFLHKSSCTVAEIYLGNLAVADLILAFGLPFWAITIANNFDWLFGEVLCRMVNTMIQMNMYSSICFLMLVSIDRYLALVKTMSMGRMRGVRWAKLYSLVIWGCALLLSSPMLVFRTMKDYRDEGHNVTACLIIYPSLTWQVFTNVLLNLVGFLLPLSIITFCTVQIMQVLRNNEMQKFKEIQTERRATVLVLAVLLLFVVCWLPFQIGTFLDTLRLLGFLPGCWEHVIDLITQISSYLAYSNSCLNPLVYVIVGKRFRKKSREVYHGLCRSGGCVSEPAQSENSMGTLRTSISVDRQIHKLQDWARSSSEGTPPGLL
In words: 3H-Bradykinin receptor binding (guinea pig ileum crude membrane). The settings on record: concentration: 1 × 10^-6 M, 3H-Bradykinin 0.06 nM, room temperature, 60 minutes. The protocol: ^3 H-Bradykinin receptor binding
(a) Crude ileum membrane preparation
Male Hartly strain guinea pigs were sacrificed by decapitation. The ileum was removed and homogenized in buffer (50 mM trimethylaminoethanesulfonic acid (TES), 1 mM 1,10-phenanthroline pH 6.8). The homogenate was centrifuged (1000×g, 20 minutes) to remove tissue clumps and the supernatant was centrifuges (100,000×g, 60 minutes) to yield a pellet. The pellet was resuspended in buffer (50 mm TES, 1 mM 1,10-phenanthroline, 140 mg/l bacitracin, 1 mM dithiothreiol, 0.1% bovine serum albumin pH 6.8) and homogenized with a glass-teflon homogenizer to yield suspension which was referred to as crude membrane suspension. The obtained membrane suspension was stored at -80° C. until use.
(b) ^3 H-Bradykinin binding to the membrane
The frozen crude membrane suspension was thawed. In binding assays, ^3 H-Bradykinin (0.06 nM) and drug (1×10^-6 M) were incubated with 50 μl of the membrane suspension at room temperature for 60 minutes in a final volume of 250 μl. Separation of receptor-bound from free ^3 H-Bradykinin is achieved by immediate filtration under vacuum and washed three times with 5 ml of ice-cold buffer (50 mM Tris-HCl pH 7.5). Non-specific binding was defined as binding in the presence of 0.1 μM Bradykinin. The radioactivity retained on rinsed filters was determined by a liquid-scintillation counter.
Broadly, the inhibition is the percentage by which the read-out fell short of the control. Regarding `Cc1ccc2cccc(OCc3c(Cl)ccc(N(C)C(=O)CNC(=O)/C=C/c4ccc(NC(=O)c5ccccn5)cc4)c3Cl)c2n1` [58-(11) (dihydrochloride), 8-[2,6-Dichloro-3-[N-methyl-N-[4-(2-pyridine-carboxamido)cinnamoylglycyl]amino]benzyloxy]-2-methylquinoline], the inhibition at 1 µM came to 99%. With `Cc1ccc2cccc(OCc3c(Cl)ccc(N(C)C(=O)CNC(=O)Nc4cccc(C(=O)N(C)c5cccnc5)c4)c3Cl)c2n1` [34-(7), 8-[2,6-Dichloro-3-[N-methyl-N-[N'-[3-[N-methyl-N-(3-pyridyl)carbamoyl]phenyl]ureidoacetyl]amino]benzyloxy]-2-methylquinoline], the inhibition at 1 µM is 100%. Turning to `Cc1ccc2cccc(OCc3c(Cl)ccc(N(C)C(=O)CNC(=O)Nc4cccc(N)c4)c3Cl)c2n1` [41-(12), 8-[3-[N-[N'-(3-Aminophenyl)ureidoacetyl]-N-methylaminol-2,6-dichlorobenzyloxy]-2-methylquinolinedihydrochloride], the inhibition at 1 µM was determined as 95%.

`CCC(=O)Nc1cccc(NC(=O)NCC(=O)N(C)c2ccc(Cl)c(COc3cccc4ccc(C)nc34)c2Cl)c1` [57 (hydrochloride), 8-[2,6-Dichloro-3-[N-methyl-N-[N'-(3-propionamidophenyl)ureidoacetyl]amino]benzyloxy]-2-methylquinoline] showed an inhibition at 1 µM of 99%. In turn, `CCc1cc(Cl)c2cccc(OCc3c(Cl)ccc(N(C)C(=O)CNC(=O)Nc4cccc(C(C)=O)c4)c3Cl)c2n1` [29-(36), 8-[3-[N-[N'-(3-Acetylphenyl)ureidoacetyl]-N-methylamino]-2,6-dichlorobenzyloxy]-4-chloro-2-ethylquinoline hydrochloride] came in with an inhibition at 1 µM of 98%.

Molecule `Cc1ccc2cccc(OCc3c(Cl)ccc(N(C)C(=O)CNC(=O)/C=C/c4ccc(N)cc4)c3Cl)c2n1` [35-(3), 8-[3-[N-(4-Aminocinnamoylglycyl)-N-methylamino]-2,6-dichlorobenzyloxy]-2-methylquinoline] showed an inhibition at 1 µM of 99%. For `Cc1ccc2cccc(OCc3c(Cl)ccc(N(C)C(=O)CNC(=O)/C=C/c4ccc(OCCN(C)C)cc4)c3Cl)c2n1` [41-(53), 8-[2,6-Dichloro-3-[N-[4-[2-(N,N-dimethylamino)ethoxy]cinnamoylglycyl)-N-methylamino]benzloxy]-2-methylquinoline dihydrochloride] the value was 99%; for `CCNC(=O)NCC(=O)N(C)c1ccc(Cl)c(COc2cccc3c(OC)cc(C)nc23)c1Cl` [41-(64), 8-[2,6-Dichloro-3-[N-(N'-ethylureidoacetyl)-N-methylamino]benzyloxy]-4-methoxy-2-methylquinoline hydrochloride], 95%.
